Test results reported in patent publication US4853398A, “Leukotriene antagonists and use thereas” (Eli Lilly and Company, priority 1987, dated 1989).

System: LTD4 evoked ileal contractions
Experiment: LTD4 antagonism: inhibition of LTD4 evoked ileal contractions (isolated guinea pig ileum)
Set-up: species or system guinea pig (male, Hartley)
Settings: for -log IC50: 50% inhibition of LTD4 responses, interpolated by linear regression from 2-4 concentrations; for Percent inhibition of LTD4 evoked ileal contractions: isolated ileum, five minute exposure
Experimental: Male, Hartley guinea pigs weighing 200-450 grams were killed by decapitation. A section of terminal ileum was removed, the lumen cleaned, and the tissue divided into 2.5 cm. segments. The ilea were mounted in 10 ml. tissue baths containing Krebs-bicarbonate solution of the following composition in mmoles/liter: KCl, 4.6; CaCl2.2H2 O, 1.2; KH2 PO4, 1.2; MgSO4.7H2 O, 1.2; NaCl, 118.2; NaHCO3, 24.8; and dextrose, 10.0. The bath fluid was maintained at 37° C. and aerated with 95 percent oxygen and 5 percent CO2. In addition, the buffer contained 1×10^-6 M atropine to reduce ileal spontaneous activity. Isometric measurements were made with a Grass FTO3C force-displacement transducer and recorded on a Grass polygraph as change in grams of force. A passive force of 0.5 g. was applied to the tissues. After an appropriate equilibration period, single submaximal control responses to pure LTD4 were obtained. Following a five minute exposure of the ileum to an experimental drug, the control concentration of LTD4 was added to the tissue bath. The response of the ileum to LTD4 in the presence of the drug was compared to the response in the absence of the drug. Various degrees of LTD4 antagonism were obtained using 2-4 different concentrations of an experimental compound on a single ileum.

[1] = compound concentration 3 × 10^-7 M
[2] = compound concentration 3 × 10^-8 M
[3] = compound concentration 3 × 10^-9 M
[4] = compound concentration 1 × 10^-8 M
[5] = compound concentration 1 × 10^-7 M

-log IC50	SMILES	Percent inhibition of LTD4 evoked ileal contractions (compound concentration 1 × 10^-9)	Percent inhibition of LTD4 evoked ileal contractions [1]	Percent inhibition of LTD4 evoked ileal contractions [2]	Percent inhibition of LTD4 evoked ileal contractions [3]	Percent inhibition of LTD4 evoked ileal contractions [4]	Percent inhibition of LTD4 evoked ileal contractions [5]
8.58	CCCc1c(COc2ccc(C(=O)c3cccc(-c4nnn[nH]4)c3)cc2)ccc(C(C)=O)c1O [Example 1, 1-[2-Hydroxy-3-propyl-4-({4-[3-(1H-tetrazol-5-yl)benzoyl]phenoxy}methyl)phenyl]ethanone]	21%	98%	80%	53%		
8.29	CCCc1c(COc2ccc(C(=O)c3ccc(-c4nnn[nH]4)cc3)cc2)ccc(C(C)=O)c1O [Example 2, 1-[2-Hydroxy-3-propyl-4-({4-[4-(1H-tetrazol-5-yl)-benzoyl]phenoxy}methyl)phenyl]ethanone]				32%	72%	
7.89	CCCc1c(COc2ccc(C(O)c3cccc(-c4nnn[nH]4)c3)cc2)ccc(C(C)=O)c1O (stereo not shown) [Example 3, 1-{2-Hydroxy-4-[(4-{hydroxy[3-(1H-tetrazol-5-yl)-phenyl]methyl}phenoxy)methyl]-3-propylphenyl}ethanone]			75%		40%	81%
7.08	CCCc1c(COc2ccc(Oc3ccc(-c4nnn[nH]4)cc3)cc2)ccc(C(C)=O)c1O [Example 4, 1-[2-Hydroxy-3-propyl-4-({4-[4-(1H-tetrazol-5-yl)-phenoxy]phenoxy}methyl)phenyl]ethanone]		80%	25%			53%
